The values that follow come from patent US20050143362A1 (priority 2003, published 2005).

The conditions of assay [1]: cited from earlier work.
In a further assay the test system is serum gonadotropins. To be noted: Gelfand et al. 1976; cited from earlier work.
Assay [2] relates to hypogonadism in the adult male. The assay is described as follows: Illustrative examples: danazol capsules given to hypogonadal adult men. It is filed as in vivo. To be noted: after one month. The source says:
A person reports a lethargic and depressed mood. Blood tests show a hypogonadism in which total testosterone is borderline normal range but SHBG levels are higher than normal. Free testosterone levels are abnormally low and the patient is diagnosed as hypogonadal.
A person reports a general physical weakening and decreased libido. Blood tests show a high total testosterone level but SHBG levels are also in the very high range. Free testosterone levels are abnormally low and the patient is diagnosed as hypogonadal.

The target of assay [3] is T1, sex hormone binding globulin (SHBG) (Homo sapiens, UniProt P04278).
T1 sequence (P04278 30-402): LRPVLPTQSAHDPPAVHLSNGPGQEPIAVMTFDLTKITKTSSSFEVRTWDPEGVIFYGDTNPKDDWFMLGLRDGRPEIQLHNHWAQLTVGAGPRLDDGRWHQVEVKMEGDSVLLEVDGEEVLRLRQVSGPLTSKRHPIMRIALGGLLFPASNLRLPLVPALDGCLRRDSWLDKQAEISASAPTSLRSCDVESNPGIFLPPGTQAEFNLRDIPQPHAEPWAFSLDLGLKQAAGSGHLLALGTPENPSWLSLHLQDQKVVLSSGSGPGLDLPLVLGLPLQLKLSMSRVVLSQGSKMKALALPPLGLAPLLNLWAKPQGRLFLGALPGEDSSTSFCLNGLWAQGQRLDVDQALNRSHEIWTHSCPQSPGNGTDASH
The following applies: Pugeat et al. 1981; cited from earlier work.

A further assay concerns the target T2, progesterone receptors (Homo sapiens, UniProt P06401).
T2 sequence (P06401 1-933): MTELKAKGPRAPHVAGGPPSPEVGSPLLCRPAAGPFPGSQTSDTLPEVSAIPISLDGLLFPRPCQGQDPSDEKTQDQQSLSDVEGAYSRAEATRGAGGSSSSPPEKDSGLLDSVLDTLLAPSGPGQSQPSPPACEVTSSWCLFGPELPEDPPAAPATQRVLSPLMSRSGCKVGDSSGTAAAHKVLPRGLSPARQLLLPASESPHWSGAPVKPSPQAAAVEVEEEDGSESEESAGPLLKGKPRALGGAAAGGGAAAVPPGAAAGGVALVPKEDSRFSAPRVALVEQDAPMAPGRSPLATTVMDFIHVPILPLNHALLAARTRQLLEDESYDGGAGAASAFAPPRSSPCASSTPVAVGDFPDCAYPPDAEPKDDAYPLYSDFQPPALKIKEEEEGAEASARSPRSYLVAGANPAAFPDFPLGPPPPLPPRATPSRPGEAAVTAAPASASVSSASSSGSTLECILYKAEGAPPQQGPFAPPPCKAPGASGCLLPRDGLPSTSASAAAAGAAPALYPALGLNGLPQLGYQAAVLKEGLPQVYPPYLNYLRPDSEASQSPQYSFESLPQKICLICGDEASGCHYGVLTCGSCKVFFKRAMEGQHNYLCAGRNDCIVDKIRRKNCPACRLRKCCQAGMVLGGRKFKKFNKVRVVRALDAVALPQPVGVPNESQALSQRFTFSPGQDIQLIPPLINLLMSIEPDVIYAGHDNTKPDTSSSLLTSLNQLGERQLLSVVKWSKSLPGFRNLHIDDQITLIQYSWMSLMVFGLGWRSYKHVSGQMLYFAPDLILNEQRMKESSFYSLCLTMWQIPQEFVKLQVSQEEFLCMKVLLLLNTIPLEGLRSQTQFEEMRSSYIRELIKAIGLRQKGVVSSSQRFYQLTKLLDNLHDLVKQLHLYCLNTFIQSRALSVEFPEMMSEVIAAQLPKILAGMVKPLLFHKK
To be noted: Zurlo et al. 1990; cited from earlier work.

[4] abbreviates: Example 1: person, one 25 milligram capsule three times daily.
The mark [5] stands for this setting: Example 2: person, one 25 milligram capsule twice a day.

As for `C#C[C@]1(O)CC[C@H]2[C@@H]3CCC4=Cc5oncc5C[C@]4(C)[C@H]3CC[C@@]21C` [danazol, 17α-pregn-4-en-20-yno[2,3-d]isoxazol-17-ol], in assay [1] (Gelfand et al. 1976), the androgenic potential entry is given as “markedly attenuated” and the “myogenic (anabolic) activity” value is listed as “mildly myogenic”. The androgen-like activity entry in assay [1] (Potts et al. 1980) was “weak”. The anabolic response result in assay [1] (whole males, low dosages, Dmowski et al. 1971) is “increased and stable, long term anabolic response”. For the same compound, the serum gonadotropins result in the assay with serum gonadotropins is on record as “dose-dependent reduction”. For the same compound, in assay [2] (setting [4]), the “SHBG level (blood test)” value is given as “remained stable”; the “free testosterone (blood test)” value is “increased”; the “total testosterone level (blood test)” value was “remained stable”; the “vigor and mood reported by patient” value was “greater vigor and an improved mood”. In addition, in assay [2] (setting [5]), the “SHBG level (blood test)” value is reported as “lower levels”, the “free testosterone (blood test)” value is recorded as “new higher level” and the “libido reported by patient” value is on record as “increased libido”. Besides, the “displacement of testosterone from SHBG” value in assay [3] is recorded as “competitive displacer of testosterone”. In addition, the “binding to progesterone receptors” value on progesterone receptors is “competitive binding”.
